{"source": "patent US7329494B2", "about": "“Method of detection and quantification of cGMP by using a cGMP-visualizing probe” (Japan Science and Technology Corporation, priority 2000, dated 2008)", "test_system": "intracellular cGMP in CGY-Del1-expressing HEK293 cells", "assay": "Intracellular cGMP detected by emission ratio in CGY-expressing HEK293 cells stimulated with NOC-7", "assay_type": "cell-based, Human", "description": "Human embryonic kidney cells (HEK293) were cultured in Dulbecco's modified eagle medium supplemented with 10% FCS, 1 mM sodium pyruvate, and 0.1 mM nonessential amino acids at 37° C. in 5% CO2, to give HEK293 cells.\nThe resulting HEK293 cells were transfected by the same method as in Example 2 with CGY-Del1, CGY-Del2, CGY-Del3 and CGY-Del4 expression vectors, to give HEK293 cells expressing each type of CGY.\nThe cGMP-visualizing probes were used to detect intracellular cGMP generated upon stimulation of the living cells with nitrogen monoxide (NO).\nFirst, to activate the soluble guanylyl cyclase in the HEK293 cells having CGY-Del1 introduced therein obtained in Example 6, NOC-7, a compound for releasing NO spontaneously in a rate-controlled manner, was added to give its final extracellular concentration of 500 μM.\nAccordingly, 1 mM 8-Br-cGMP, a phosphodiesterase-resistant analogue of cGMP, was added to the system described above."}
{"compound": "Nc1nc2c(nc(Br)n2[C@@H]2O[C@@H]3COP(=O)(O)O[C@H]3[C@H]2O)c(=O)[nH]1", "note": "[8-Br-cGMP]", "values": [{"measurement": "emission ratio on addition after NOC-7-induced decrease and recovery", "setting": "added 900 seconds after 500 μM NOC-7, 1 mM 8-Br-cGMP", "result": "decreased again"}]}
{"compound": "CNCCCN(C)/[N+]([O-])=N/O", "note": "[NOC-7]", "values": [{"measurement": "emission ratio upon addition of NOC-7", "setting": "500 μM NOC-7", "result": "rapidly decreased"}]}
{"compound": "O=c1onc2cnc3ccccc3n12", "note": "[ODQ]", "values": [{"measurement": "NOC-7-induced emission ratio change in cells pre-treated with ODQ", "setting": "10 μM ODQ, 500 μM NOC-7", "result": "change in the emission ratio elicited by NOC-7 was not observed"}]}
{"compound": "CCCOc1ccccc1-c1nc2nn[nH]c2c(=O)[nH]1", "note": "[zaprinast]", "values": [{"measurement": "NOC-7-induced emission ratio change in cells treated with zaprinast", "setting": "100 μM zaprinast, 500 μM NOC-7", "result": "later slower increase in the emission ratio was not observed"}]}
